Data from publication PMC5431190, “Investigation of cationicity and structure of pseudin-2 analogues for enhanced bacterial selectivity and anti-inflammatory activity” (Scientific Reports, 2017).
In brackets after ≈: the same amount, converted by molar mass. Read-outs that look alike come from different tables or passages of the source. Residues, ends and D or L forms follow the SMILES beside them.

Assays:
[1] = test system: S. aureus 3089(R) (MRSA 3089); format: cell-based, Staphylococcus aureus; conditions: multidrug-resistant strain; 1% peptone media, 16 h at 37 °C
[2] = test system: S. aureus 3108(R) (MRSA 3108); format: cell-based, Staphylococcus aureus; conditions: multidrug-resistant strain; 1% peptone media, 16 h at 37 °C
[3] = test system: Salmonella typhimurium KCTC 1926; format: cell-based
Description: (§1) Four Gram-negative bacteria species (Escherichia coli KCTC 1682, Acinetobacter baumannii KCTC 2508, Pseudomonas aeruginosa KCTC 1637 and Salmonella typhimurium KCTC 1926) and three Gram-positive bacteria species (Staphylococcus aureus KCTC 1621, Bacillus subtilis KCTC 3028 and Staphylococcus epidermidis KCTC 1917) were procured from the Korean Collection for Type Cultures (KCTC). Multi-drug-resistant Gram-negative bacteria (Salmonella typhimurium CCARM 8003 and 8007, Escherichia coli CCARM 1229 and 1238, Pseudomonas aeruginosa CCARM 2002 and 2095 and Acinetobacter baumannii CCARM 12035 and 12036) were obtained from the Culture Collection of Antibiotic-Resistant Microbes (CCARM). To determine MICs, bacteria were cultured in Luria-Bertani (LB) medium for overnight at 37 °C. An aliquot of the culture was incubated in 1% peptone media at 37 °C until mid-log phase. 100 μl of serial 2-fold diluted peptides were treated in 96 well plates and added to 100 μl of 2 × 10^6 CFU/ml bacterial suspensions in 1% peptone media for 16 h at 37 °C.

[4] = test system: Gram-negative bacteria (E. coli, A. baumannii, P. aeruginosa, S. typhimurium); format: cell-based
Description: as §1

[5] = test system: Acinetobacter baumannii CCARM 12036 (MDRAB 12036); format: cell-based; conditions: multidrug-resistant strain; 1% peptone media, 16 h at 37 °C
Description: as §1

[6] = test system: Acinetobacter baumannii CCARM 12035 (MDRAB 12035); format: cell-based; conditions: multidrug-resistant strain; 1% peptone media, 16 h at 37 °C
Description: as §1

[7] = test system: Bacillus subtilis KCTC 3028; format: cell-based
Description: as §1

[8] = test system: Escherichia coli CCARM 1229 (MDREC 1229); format: cell-based; conditions: multidrug-resistant strain; 1% peptone media, 16 h at 37 °C
Description: as §1

[9] = test system: Staphylococcus epidermidis KCTC 1917; format: cell-based
Description: as §1

[10] = test system: Staphylococcus aureus KCTC 1621; format: cell-based
Description: as §1

[11] = test system: Pseudomonas aeruginosa CCARM 2002 (MDRPA 2002); format: cell-based; conditions: multidrug-resistant strain; 1% peptone media, 16 h at 37 °C
Description: as §1

[12] = test system: Acinetobacter baumannii KCTC 2508; format: cell-based
Description: as §1

[13] = test system: Gram-positive bacteria (S. aureus, B. subtilis, S. epidermidis); format: cell-based
Description: as §1

[14] = test system: Pseudomonas aeruginosa KCTC 1637; format: cell-based
Description: as §1

[15] = test system: Salmonella typhimurium CCARM 8007 (MDRST 8007); format: cell-based; conditions: multidrug-resistant strain; 1% peptone media, 16 h at 37 °C
Description: as §1

[16] = test system: Escherichia coli KCTC 1682; format: cell-based
Description: as §1

[17] = test system: Salmonella typhimurium CCARM 8003 (MDRST 8003); format: cell-based; conditions: multidrug-resistant strain; 1% peptone media, 16 h at 37 °C
Description: as §1

[18] = test system: Escherichia coli CCARM 1238 (MDREC 1238); format: cell-based; conditions: multidrug-resistant strain; 1% peptone media, 16 h at 37 °C
Description: as §1

[19] = test system: Pseudomonas aeruginosa CCARM 2095 (MDRPA 2095); format: cell-based; conditions: multidrug-resistant strain; 1% peptone media, 16 h at 37 °C
Description: as §1

[20] = test system: human red blood cells (hRBCs); assay: Haemolytic activity; format: cell-based
Protocol: Peptide-induced lysis of human red blood cells (hRBCs) was determined as follows. Fresh hRBCs were washed 2–3 times with phosphate-buffered saline (PBS) by centrifugation for 5 min at 2500 rpm at 4 °C. Peptides in PBS were incubated with 4% (v/v) hRBCs for 1 h at 37 °C. Samples were then centrifuged for 5 min at 1000 × g. The absorbance of the supernatant at 405 nm was used as a measure of haemolysis. As a positive control, 100% haemolysis was obtained by treating hRBCs with 0.1% Triton X-100.

[21] = test system: S. aureus 3126(R) (MRSA 3126); format: cell-based, Staphylococcus aureus; conditions: multidrug-resistant strain; 1% peptone media, 16 h at 37 °C

SMILES	MIC, MRSA 3089 [1]	MIC, MRSA 3108 [2]	MIC, MDRAB 12036 [5]	MIC, MDRAB 12035 [6]	MIC, MDREC 1229 [8]	MIC, MDRPA 2002 [11]	MIC, MDRST 8007 [15]	MIC, MDRST 8003 [17]	MIC, MDREC 1238 [18]	MIC, MDRPA 2095 [19]	MIC, MRSA 3126 [21]	further results
CC[C@H](C)[C@H](NC(=O)CNC(=O)[C@H](CCC(N)=O)NC(=O)[C@H](Cc1ccccc1)NC(=O)[C@@H](NC(=O)[C@H](CCCCN)NC(=O)[C@H](CCCCN)NC(=O)[C@H](CC(C)C)NC(=O)[C@H](C)NC(=O)[C@H](CC(N)=O)NC(=O)[C@H](CC(C)C)NC(=O)CN)C(C)C)C(=O)N[C@@H](Cc1c[nH]cn1)C(=O)N[C@@H](CCCCN)C(=O)N[C@@H](C)C(=O)N[C@H](C(=O)N[C@@H](CCCCN)C(=O)N[C@@H](CCCCN)C(=O)N[C@H](C(=O)N[C@@H](CC(N)=O)C(=O)N[C@@H](CC(N)=O)C(=O)N[C@@H](Cc1c[nH]cn1)C(=O)N[C@H](C(=O)N[C@@H](CCC(N)=O)C(=O)O)C(C)C)[C@@H](C)CC)[C@@H](C)CC [Ps-K14-K18] (H-GLNALKKVFQGIHKAIKKINNHVQ-OH)	8 µM (≈ 21.6 µg/mL)	4 µM (≈ 10.8 µg/mL)	2 µM (≈ 5.4 µg/mL)	2 µM (≈ 5.4 µg/mL)	2 µM (≈ 5.4 µg/mL)	2 µM (≈ 5.4 µg/mL)	4 µM (≈ 10.8 µg/mL)	4 µM (≈ 10.8 µg/mL)	2 µM (≈ 5.4 µg/mL)	4 µM (≈ 10.8 µg/mL)	4 µM (≈ 10.8 µg/mL)	MIC, S. typhimurium ([3]; KCTC 1926, 16 h): 2 µM (≈ 5.4 µg/mL); Average MIC, Gram-negative ([4]; 16 h): 1.75 µM; MIC, B. subtilis ([7]; KCTC 3028, 16 h): 8 µM (≈ 21.6 µg/mL); MIC, S. epidermidis ([9]; KCTC 1917, 16 h): 16 µM (≈ 43.2 µg/mL); MIC, S. aureus ([10]; KCTC 1621, 16 h): 8 µM (≈ 21.6 µg/mL); MIC, A. baumannii ([12]; KCTC 2508, 16 h): 2 µM (≈ 5.4 µg/mL); Average MIC, Gram-positive ([13]; 16 h): 10.67 µM; MIC, P. aeruginosa ([14]; KCTC 1637, 16 h): 2 µM (≈ 5.4 µg/mL); MIC, E. coli ([16]; KCTC 1682, 16 h): 1 µM (≈ 2.7 µg/mL); MHC (minimal peptide concentration that produces haemolysis) ([20]; red cells of human, 1 h): 100 µM; haemolysis at 100 μM ([20]; red cells of human, 1 h, 100): 1.1%
CC[C@H](C)[C@H](NC(=O)[C@H](C)NC(=O)[C@H](CCC(=O)O)NC(=O)[C@H](Cc1c[nH]cn1)NC(=O)[C@@H](NC(=O)[C@@H]1CCCN1C(=O)[C@H](CCC(N)=O)NC(=O)[C@H](Cc1ccccc1)NC(=O)[C@@H](NC(=O)[C@H](CCCCN)NC(=O)[C@H](CCCCN)NC(=O)[C@H](CC(C)C)NC(=O)[C@H](C)NC(=O)[C@H](CC(N)=O)NC(=O)[C@H](CC(C)C)NC(=O)CN)C(C)C)[C@@H](C)CC)C(=O)N[C@@H](CCCCN)C(=O)N[C@@H](CCCCN)C(=O)N[C@H](C(=O)N[C@@H](CC(N)=O)C(=O)N[C@@H](CC(N)=O)C(=O)N[C@@H](Cc1c[nH]cn1)C(=O)N[C@H](C(=O)N[C@@H](CCC(N)=O)C(=O)O)C(C)C)[C@@H](C)CC [Ps-K18-P] (H-GLNALKKVFQPIHEAIKKINNHVQ-OH)	64 µM (≈ 175 µg/mL)	64 µM (≈ 175 µg/mL)	16 µM (≈ 43.8 µg/mL)	16 µM (≈ 43.8 µg/mL)	32 µM (≈ 87.7 µg/mL)	16 µM (≈ 43.8 µg/mL)	16 µM (≈ 43.8 µg/mL)	16 µM (≈ 43.8 µg/mL)	16 µM (≈ 43.8 µg/mL)	16 µM (≈ 43.8 µg/mL)	>64 µM	MIC, S. typhimurium ([3]; standard strain KCTC 1926, 1% peptone media, 16 h at 37 °C, three independent experiments in triplicate, SD 14.0%): 16 µM (≈ 43.8 µg/mL); Average MIC, Gram-negative ([4]; average over the four Gram-negative standard strains): 14 µM; MIC, B. subtilis ([7]; standard strain KCTC 3028, 1% peptone media, 16 h at 37 °C, three independent experiments in triplicate, SD 14.0%): 64 µM (≈ 175 µg/mL); MIC, S. epidermidis ([9]; standard strain KCTC 1917, 1% peptone media, 16 h at 37 °C, three independent experiments in triplicate, SD 14.0%): 64 µM (≈ 175 µg/mL); MIC, S. aureus ([10]; standard strain KCTC 1621, 1% peptone media, 16 h at 37 °C, three independent experiments in triplicate, SD 14.0%): 64 µM (≈ 175 µg/mL); MIC, A. baumannii ([12]; standard strain KCTC 2508, 1% peptone media, 16 h at 37 °C, three independent experiments in triplicate, SD 14.0%): 16 µM (≈ 43.8 µg/mL); Average MIC, Gram-positive ([13]; average over the three Gram-positive standard strains): 64 µM; MIC, P. aeruginosa ([14]; standard strain KCTC 1637, 1% peptone media, 16 h at 37 °C, three independent experiments in triplicate, SD 14.0%): 8 µM (≈ 21.9 µg/mL); MIC, E. coli ([16]; standard strain KCTC 1682, 2-fold dilutions, 1% peptone media, 2 × 10^6 CFU/ml suspension, 16 h at 37 °C, three independent experiments in triplicate, SD 14.0%): 16 µM (≈ 43.8 µg/mL); haemolysis at 400 μM ([20]; 400 μM peptide, 4% hRBCs, PBS, 1 h at 37 °C, 100% = 0.1% Triton X-100): 0.1%; MHC (minimal peptide concentration that produces haemolysis) ([20]; 4% (v/v) hRBCs in PBS, 1 h at 37 °C, absorbance 405 nm, printed in both Gram-negative and Gram-positive sections): 400 µM
